Results: US9611221B2, “Histone demethylase inhibitors” (CELGENE QUANTICEL RESEARCH, INC., priority 2012, dated 2017)

How the values were obtained:
Assay type in all cases: biochemical
Jarid1A = Jarid1A (Homo sapiens (Human), UniProt P29375); test: Jarid1A in vitro enzyme inhibition assay (TR-FRET); conditions: 1 nM Jarid1A, 300 nM H3K4me3-biotin peptide, 2 μM alpha-ketoglutaric acid
Description: (§1) This assay determines the ability of a test compound to inhibit Jarid1A, Jarid1B, and JMJD2C demethylase activity. Baculovirus expressed Jarid1A (GenBank Accession #NM_001042603, AA1-1090) was purchased from BPS Bioscience (Cat#50110). Baculovirus expressed Jarid1B (GenBank Accession #NM_006618, AA 2-751) was purchased from BPS Bioscience (Cat #50121) or custom made by MolecularThroughput. Baculovirus expressed JMJD2C (GenBank Accession #BC143571, AA 2-372) was purchased from BPS Bioscience (Cat#50105).
(§2) The enzymatic assay of Jarid1A activity is based upon Time Resolved-Fluorescence Resonance Energy Transfer (TR-FRET) detection. The ability of test compounds to inhibit the activity of Jarid1A was determined in 384-well plate format under the following reaction conditions: 1 nM Jarid1A, 300 nM H3K4me3-biotin labeled peptide (Anaspec cat #64357), 2 μM alpha-ketoglutaric acid in assay buffer of 50 mM HEPES, pH7.3, 0.005% Brij35, 0.5 mM TCEP, 0.2 mg/ml BSA, 50 μM sodium L-ascorbate, and 2 μM ammonium iron(II) sulfate. Reaction product was determined quantitatively by TR-FRET after the addition of detection reagent Phycolink Streptavidin-allophycocyanin (Prozyme) and Europium-anti-mono- or di-methylated histone H3 lysine 4 (H3K4me1-2) antibody (PerkinElmer) in the presence of 5 mM EDTA in LANCE detection buffer (PerkinElmer) at a final concentration of 25 nM and 1 nM, respectively.
(§3) The reaction mixture was incubated at room temperature for 30 minutes, and terminated by the addition of 6 μl of 5 mM EDTA in LANCE detection buffer containing 50 nM Phycolink Streptavidin-allophycocyanin and 2 nM Europium-anti-H3K4me1-2 antibody. Plates were read by EnVisionMultilabel Reader in TR-FRET mode (excitation at 320 nm, emission at 615 nm and 665 nm) after 1 hour incubation at room temperature. A ratio was calculated (665/615) for each well and fitted to determine inhibition constant (IC50).

Jarid1B = Jarid1B (Homo sapiens (Human), UniProt Q9UGL1); test: Jarid1B in vitro enzyme inhibition assay (TR-FRET); conditions: 0.8 nM Jarid1B, 300 nM H3K4me3-biotin peptide, 2 μM alpha-ketoglutaric acid
Jarid1B, sequence (Q9UGL1 2-751): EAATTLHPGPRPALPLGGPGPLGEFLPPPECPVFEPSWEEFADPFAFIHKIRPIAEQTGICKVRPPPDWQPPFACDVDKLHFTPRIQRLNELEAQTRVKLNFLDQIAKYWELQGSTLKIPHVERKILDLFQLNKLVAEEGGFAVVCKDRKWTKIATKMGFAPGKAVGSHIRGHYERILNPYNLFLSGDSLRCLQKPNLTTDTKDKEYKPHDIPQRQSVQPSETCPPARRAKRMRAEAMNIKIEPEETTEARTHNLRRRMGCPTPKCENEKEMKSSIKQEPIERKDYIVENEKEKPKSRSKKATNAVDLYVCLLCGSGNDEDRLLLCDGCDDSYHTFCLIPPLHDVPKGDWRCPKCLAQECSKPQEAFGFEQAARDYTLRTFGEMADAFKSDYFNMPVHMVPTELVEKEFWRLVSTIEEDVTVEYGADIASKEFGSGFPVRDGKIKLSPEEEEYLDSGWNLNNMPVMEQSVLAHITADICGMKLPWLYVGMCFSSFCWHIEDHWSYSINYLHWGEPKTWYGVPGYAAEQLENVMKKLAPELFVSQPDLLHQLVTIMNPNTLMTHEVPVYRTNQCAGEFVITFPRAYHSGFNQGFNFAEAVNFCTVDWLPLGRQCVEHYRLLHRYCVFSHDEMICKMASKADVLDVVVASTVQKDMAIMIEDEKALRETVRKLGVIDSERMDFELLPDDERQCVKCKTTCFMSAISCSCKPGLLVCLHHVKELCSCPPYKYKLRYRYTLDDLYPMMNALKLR
Description: as §1
as §2, with “The” for “The enzymatic assay of Jarid1A activity is based upon Time Resolved-Fluorescence Resonance Energy Transfer (TR-FRET) detection. The”, “of Jarid1B” for “of Jarid1A”, “conditions: 0.8” for “conditions: 1”, “nM Jarid1B,” for “nM Jarid1A,”
as §3

JMJD2C = JMJD2C (Homo sapiens (Human), UniProt Q9H3R0); test: JMJD2C in vitro enzyme inhibition assay (TR-FRET); conditions: 0.3 nM JMJD2C, 300 nM H3K9me3-biotin peptide, 2 μM alpha-ketoglutaric acid
JMJD2C, sequence (Q9H3R0 2-372): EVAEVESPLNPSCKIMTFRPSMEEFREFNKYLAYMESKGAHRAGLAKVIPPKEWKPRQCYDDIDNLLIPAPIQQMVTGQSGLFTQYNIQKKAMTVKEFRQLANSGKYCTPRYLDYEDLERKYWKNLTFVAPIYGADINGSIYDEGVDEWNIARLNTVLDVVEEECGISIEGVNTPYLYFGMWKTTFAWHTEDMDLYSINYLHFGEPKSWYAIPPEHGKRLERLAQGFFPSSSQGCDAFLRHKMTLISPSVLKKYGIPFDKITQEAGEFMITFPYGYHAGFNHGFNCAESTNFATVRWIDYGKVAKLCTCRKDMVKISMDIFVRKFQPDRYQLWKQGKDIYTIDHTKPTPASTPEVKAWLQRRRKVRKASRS
Description: as §1
The ability of test compounds to inhibit the activity of JMJD2C was determined in 384-well plate format under the following reaction conditions: 0.3 nM JMJD2C, 300 nM H3K9me3-biotin labeled peptide (Anaspec cat #64360), 2 μM alpha-ketoglutaric acid in assay buffer of 50 mM HEPES, pH7.3, 0.005% Brij35, 0.5 mM TCEP, 0.2 mg/ml BSA, 50 μM sodium L-ascorbate, and 2 μM ammonium iron(II) sulfate. Reaction product was determined quantitatively by TR-FRET after the addition of detection reagent Phycolink Streptavidin-allophycocyanin (Prozyme) and Europium-anti-di-methylated histone H3 lysine 9 (H3K9me2) antibody (PerkinElmer) in the presence of 5 mM EDTA in LANCE detection buffer (PerkinElmer) at a final concentration of 50 nM and 1 nM, respectively.
as §3, with “containing 100” for “containing 50”, “nM Europium-anti-H3K9me2” for “nM Europium-anti-H3K4me1-2”

Jarid1A, sequence (P29375 1-1090): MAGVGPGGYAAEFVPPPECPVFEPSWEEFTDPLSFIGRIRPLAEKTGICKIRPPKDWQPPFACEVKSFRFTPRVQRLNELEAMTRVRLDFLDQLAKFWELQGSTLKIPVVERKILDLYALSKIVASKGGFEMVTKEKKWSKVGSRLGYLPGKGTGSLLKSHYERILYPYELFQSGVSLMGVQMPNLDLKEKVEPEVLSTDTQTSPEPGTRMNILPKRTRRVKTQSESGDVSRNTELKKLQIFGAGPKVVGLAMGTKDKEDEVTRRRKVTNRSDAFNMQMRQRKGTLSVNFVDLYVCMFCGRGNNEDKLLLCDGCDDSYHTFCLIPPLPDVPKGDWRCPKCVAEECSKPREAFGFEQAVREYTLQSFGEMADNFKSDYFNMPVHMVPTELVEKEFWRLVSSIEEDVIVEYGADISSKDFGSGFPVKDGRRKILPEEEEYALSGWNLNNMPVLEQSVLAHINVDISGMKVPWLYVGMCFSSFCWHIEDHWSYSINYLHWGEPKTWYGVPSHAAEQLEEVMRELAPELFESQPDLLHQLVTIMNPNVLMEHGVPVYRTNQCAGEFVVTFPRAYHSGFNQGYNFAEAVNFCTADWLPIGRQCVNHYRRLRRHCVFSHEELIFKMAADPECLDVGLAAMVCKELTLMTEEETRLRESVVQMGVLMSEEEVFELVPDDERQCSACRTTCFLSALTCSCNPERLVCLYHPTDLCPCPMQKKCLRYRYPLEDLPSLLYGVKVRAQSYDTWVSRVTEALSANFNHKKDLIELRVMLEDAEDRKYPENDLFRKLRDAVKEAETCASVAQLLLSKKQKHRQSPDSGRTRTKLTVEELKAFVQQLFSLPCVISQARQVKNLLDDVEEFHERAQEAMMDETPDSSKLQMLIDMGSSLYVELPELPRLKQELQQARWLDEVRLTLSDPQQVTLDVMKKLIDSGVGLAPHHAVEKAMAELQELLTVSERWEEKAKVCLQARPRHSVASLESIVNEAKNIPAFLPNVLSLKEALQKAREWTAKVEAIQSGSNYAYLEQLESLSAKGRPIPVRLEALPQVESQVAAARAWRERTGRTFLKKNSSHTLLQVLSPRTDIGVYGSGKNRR

Row | Compound | IC50 (Jarid1A) | IC50 (Jarid1B) | IC50 (JMJD2C)
1 | Cc1cc(Cl)ccc1CNc1cnccc1C(=O)O [Example 15, 3-[(4-chloro-2-methylbenzyl)amino]pyridine-4-carboxylic acid] |  | ≤ 100 nM | ≤ 100 nM
2 | COc1ccc2c(c1)CCCC2CNc1cnccc1C(=O)O (stereo not drawn) [Example 60, 3-{[(6-methoxy-1,2,3,4-tetrahydronaphthalen-1-yl)methyl]amino}pyridine-4-carboxylic acid] | ≤ 100 nM | ≤ 100 nM | 100 to 1000 nM
3 | O=C(O)c1ccncc1NCc1ccc(Cl)cc1 [Example 10, 3-[(4-chlorobenzyl)amino]pyridine-4-carboxylic acid] |  | ≤ 100 nM | ≤ 100 nM
4 | O=C(O)c1ccncc1NCc1cccc(F)c1 [Example 3, 3-[(3-fluorobenzyl)amino)pyridine-4-carboxylic acid] |  | ≤ 100 nM | ≤ 100 nM
5 | CN(C)Cc1ccccc1CNc1cnccc1C(=O)O [Example 13, 3-({2-[(dimethylamino)methyl]benzyl}amino)pyridine-4-carboxylic acid] |  | ≤ 100 nM | ≤ 100 nM
6 | COc1ccc(CNc2cnccc2C(=O)O)cc1 [Example 7, 3-[(4-methoxybenzyl)amino]pyridine-4-carboxylic acid] |  | ≤ 100 nM | ≤ 100 nM
7 | O=C(O)c1ccncc1NCc1ccc(Cl)c(Cl)c1 [Example 14] |  | ≤ 100 nM | ≤ 100 nM
8 | O=C(O)c1ccncc1NCc1ccc(-c2ccccc2)cc1 [Example 9, 3-[(biphenyl-4-ylmethyl)amino]pyridine-4-carboxylic acid] |  | 100 to 1000 nM | 1000 to 10000 nM
9 | O=C(O)c1ccncc1NCC1CCOc2cc(CCC3CC3)ccc21 (stereo not drawn) [Example 91, 3-({[7-(2-cyclopropylethyl)-3,4-dihydro-2H-chromen-4-yl]methyl}amino)pyridine-4-carboxylic acid] |  |  | 100 to 1000 nM
10 | 3-{[(7-fluoro-3,4-dihydro-2H-chromen-4- yl)methyl]amino}pyridine-4-carboxylic acid [Example 65] |  |  | ≤ 100 nM
11 | COc1ccc(CNc2cnccc2C(=O)O)c(OC)c1 [Example 16, 3-[(2,4-dimethoxyoxybenzyl)amino]pyridine-4-carboxylic acid] |  | ≤ 100 nM | 100 to 1000 nM
12 | O=C(O)c1ccncc1NCc1ccccc1F [Example 2, 3-[(2-fluorobenzyl)amino)pyridine-4-carboxylic acid] |  | ≤ 100 nM | ≤ 100 nM
13 | O=C(O)c1ccncc1NC[C@@H]1CCCc2cc(OCCC(F)(F)F)ccc21 [Example 100, 3-({[(1R)-6-(3,3,3-trifluoropropoxy)-1,2,3,4-tetrahydronaphthalen-1-yl]methyl}amino)pyridine-4-carboxylic acid] |  |  | 100 to 1000 nM
14 | O=C(O)c1ccncc1NCc1ccc(Oc2ccccc2)cc1 [Example 12, 3-[(4-phenoxybenzyl)amino]pyridine-4-carboxylic acid] |  | ≤ 100 nM | 100 to 1000 nM

Other lines, results leading:

Row | IC50 (Jarid1A) | IC50 (Jarid1B) | IC50 (JMJD2C) | Compound
15 | ≤ 100 nM | ≤ 100 nM | ≤ 100 nM | O=C(O)c1ccncc1NCC1Cc2ccccc2O1 (stereo not drawn) [Example 43, 3-[(2,3-dihydro-1-benzofuran-2-ylmethyl)amino]pyridine-4-carboxylic acid]
16 | ≤ 100 nM | ≤ 100 nM | ≤ 100 nM | O=C(O)c1ccncc1NCc1cccc2cc[nH]c12 [Example 29, 3-[(1H-indol-7-ylmethyl)amino]pyridine-4-carboxylic acid]
17 | ≤ 100 nM | ≤ 100 nM | ≤ 100 nM | O=C(O)c1ccncc1NCc1cccc2ccccc12 [Example 28, 3-[(naphthalene-1-ylmethyl)amino]pyridine-4-carboxylic acid]
18 | 100 to 1000 nM | 100 to 1000 nM | 100 to 1000 nM | O=C(O)c1ccncc1NCc1cccc(OC(F)(F)F)c1 [Example 35, 3-{[3-(trifluoromethoxy)benzyl]amino}pyridine-4-carboxylic acid]
19 | ≤ 100 nM | ≤ 100 nM | 100 to 1000 nM | O=C(O)c1ccncc1NCc1ccccc1Nc1ccccc1 [Example 36, 3-{[2-(phenylamino)benzyl]amino}pyridine-4-carboxylic acid]
20 |  | ≤ 100 nM | 100 to 1000 nM | O=C(O)c1ccncc1NCC1CCCc2ccc(F)cc21 (stereo not drawn) [Example 50, 3-{[(7-fluoro-1,2,3,4-tetrahydronaphthalen-1-yl)methyl]amino}pyridine-4-carboxylic acid]
21 |  | ≤ 100 nM | ≤ 100 nM | O=C(O)c1ccncc1NCc1ccccc1O [Example 17, 3-[(2-hydroxybenzyl)amino]pyridine-4-carboxylic acid]
23 |  |  | 100 to 1000 nM | O=C(O)c1ccncc1NCC1CCOc2cc(-c3ccccc3)ccc21 (stereo not drawn) [Example 69, 3-{[(7-phenyl-3,4-dihydro-2H-chromen-4-yl)methyl]amino}pyridine-4-carboxylic acid]
24 |  |  | 100 to 1000 nM | O=C(O)c1ccncc1NCC1CCCc2c(F)cccc21 (stereo not drawn) [Example 54, 3-{[(5-fluoro-1,2,3,4-tetrahydronaphthalen-1-yl)methyl]amino}pyridine-4-carboxylic acid]
25 |  |  | 100 to 1000 nM | O=C(O)c1ccncc1NCC1CCCc2cc(OCCc3ccccc3)ccc21 (stereo not drawn) [Example 89, 3-({[6-(2-phenylethoxy)-1,2,3,4-tetrahydronaphthalen-1-yl]methyl}amino)pyridin-4-carboxylic acid]
26 |  |  | 100 to 1000 nM | O=C(O)c1ccncc1NCC1CCOc2cc(Cl)ccc21 (stereo not drawn) [Example 66, 3-{[(7-chloro-3,4-diydro-2H-chromen-4-y)methyl]amino}pyridine-4-carboxylic acid]
27 |  | ≤ 100 nM | ≤ 100 nM | O=C(O)c1ccncc1NCc1ccccc1C1CC1 [Example 19, 3-[(2-cyclopropylbenzyl)amino]pyridine-4-carboxylic acid]
28 |  |  | 100 to 1000 nM | O=C(O)c1ccncc1NCC1CCCc2cc(Oc3cccc(C(F)(F)F)n3)ccc21 (stereo not drawn) [Example 104, 3-{[(6-{[6-(trifluoromethyl)pyridin-2-yl]oxy}-1,2,3,4-tetrahydronaphthalen-1-yl)methyl]amino}pyridine-4-carboxylic acid]
29 |  |  | 1000 to 10000 nM | O=C(O)c1ccncc1NCC1CCCc2c(Oc3ccccc3)cccc21 (stereo not drawn) [Example 77, 3-{[(5-phenoxy-1,2,3,4-tetrahydronaphthalen-1-yl)methyl]amino}pyridine-4-carboxylic acid]
30 |  |  | 100 to 1000 nM | O=C(O)c1ccncc1NC[C@@H]1CCOc2cc(C3CC3)ccc21 [Example 88, 3-({[(4R)-7-cyclopropyl-3,4-dihydro-2H-chromen-4-yl]methyl}amino)pyridine-4-carboxylic acid]
31 |  |  | 100 to 1000 nM | COc1cccc2c1CCCC2CNc1cnccc1C(=O)O (stereo not drawn) [Example 74, 3-{[(5-methoxy-1,2,3,4-tetrahydronaphthalen-1-yl)methyl]amino}pyridine-4-carboxylic acid]
